We go through 26 molecules from patent US20010012846A1, “Quinoline-4-carboxamide derivatives as NK-2 and NK-3 receptor antagonists” (priority 1997, published 2001).

Usually Ki stands for the dissociation constant of the complex between target and ligand, obtained from inhibition or displacement. The term melting point denotes the temperature, or range, at which the solid turns liquid.

Molecules are shown by their SMILES. “And” between values parts separate entries of the source, which are not always exact repeats. Equal entries are not always repeated. Structures can show the parent of a compound that is named as a salt.

Data set [1] deals with T1, human neurokinin-3 receptor (Homo sapiens, UniProt P29371).
T1 construct: expressed in transfected cells; host or cells: CHO
T1 sequence (P29371 1-465): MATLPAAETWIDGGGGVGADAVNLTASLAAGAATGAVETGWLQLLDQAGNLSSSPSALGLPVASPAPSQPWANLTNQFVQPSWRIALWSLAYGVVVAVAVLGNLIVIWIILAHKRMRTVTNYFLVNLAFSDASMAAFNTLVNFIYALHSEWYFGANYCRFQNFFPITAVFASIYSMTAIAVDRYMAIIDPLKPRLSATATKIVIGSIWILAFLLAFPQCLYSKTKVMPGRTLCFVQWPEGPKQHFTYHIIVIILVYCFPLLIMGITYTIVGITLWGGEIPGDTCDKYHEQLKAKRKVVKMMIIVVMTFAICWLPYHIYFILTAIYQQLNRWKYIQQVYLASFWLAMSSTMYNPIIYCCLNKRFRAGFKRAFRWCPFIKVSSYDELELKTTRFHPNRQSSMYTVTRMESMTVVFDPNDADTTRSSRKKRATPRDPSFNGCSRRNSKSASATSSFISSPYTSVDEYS
Description: Binding affinity to human NK-3 receptor expressed in CHO cells (inhibition of [125I]-[Me-Phe7]-NKB or [3H]-Senktide binding). As to conditions: human neurokinin-3 receptor expressed in CHO cell lines; read-out: Binding affinity, Ki (nM) hNK-3-CHO. The protocol:
The activity of the compounds of the present invention, as NK3 ligands, is determined by their ability to inhibit the binding of the radiolabelled NK3 ligands, [^125I]-[Me-Phe^7]-NKB or [^3H]-Senktide, to guinea-pig and human NK3 receptors (Renzetti et al, 1991, Neuropeptide, 18, 104-114; Buell et al, 1992, FEBS, 299(1), 90-95; Chung et al, 1994, Biochem. Biophys. Res. Commun., 198(3), 967-972).
The binding assays utilized allow the determination of the concentration of the individual compound required to reduce by 50% the [^125I]-[Me-Phe^7]-NKB and [^3H]-Senktide specific binding to NK3 receptor in equilibrium conditions (IC50).
Binding assays provide for each compound tested a mean IC50 value of 2-5 separate experiments performed in duplicate or triplicate. […] The NK3-antagonist activity of the compounds of the present invention is determined by their ability to inhibit senktide-induced contraction of the guinea-pig ileum (Maggi et al, 1990, Br. J. Pharmacol., 101, 996-1000) and rabbit isolated iris sphincter muscle (Hall et al., 1991, Eur. J. Pharmacol., 199, 9-14) and human NK3 receptors-mediated Ca^++ mobilization (Mochizuki et al, 1994, J. Biol. Chem., 269, 9651-9658). Guinea-pig and rabbit in-vitro functional assays provide for each compound tested a mean KB value of 3-8 separate experiments, where KB is the concentration of the individual compound required to produce a 2-fold rightward shift in the concentration-response curve of senktide. Human receptor functional assay allows the determination of the concentration of the individual compound required to reduce by 50% (IC50 values) the Ca^++ mobilization induced by the agonist NKB. In this assay, the compounds of the present invention behave as antagonists.

The target in data set [2] is T2, human neurokinin-2 receptor (Homo sapiens, UniProt P21452).
T2 construct: expressed in transfected cells; host or cells: CHO
T2 sequence (P21452 1-398): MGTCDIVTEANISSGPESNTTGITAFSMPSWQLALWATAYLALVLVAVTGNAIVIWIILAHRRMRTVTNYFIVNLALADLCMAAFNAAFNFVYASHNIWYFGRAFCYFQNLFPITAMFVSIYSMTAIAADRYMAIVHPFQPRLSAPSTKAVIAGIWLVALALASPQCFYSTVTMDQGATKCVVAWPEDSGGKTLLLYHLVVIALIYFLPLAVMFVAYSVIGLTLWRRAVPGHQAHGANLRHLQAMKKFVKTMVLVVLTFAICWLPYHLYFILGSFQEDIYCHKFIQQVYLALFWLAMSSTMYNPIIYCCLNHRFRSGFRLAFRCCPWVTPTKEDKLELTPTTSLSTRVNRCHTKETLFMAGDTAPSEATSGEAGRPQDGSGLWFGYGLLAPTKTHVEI
Description: Binding affinity to human NK-2 receptor expressed in CHO cells (inhibition of [125I]-NKA or [3H]-NKA binding). As to conditions: human neurokinin-2 receptor expressed in CHO cell lines; read-out: Binding affinity, Ki (nM) hNK-2-CHO. The protocol:
The activity of the compounds of the present invention, as NK-2 ligands, is determined by their ability to inhibit the binding of the radiolabelled NK-2 ligands, [^125I]-NKA or [^3H]-NKA, to human NK-2 receptors (Aharony et al, 1992, Neuropeptide, 23, 121-130).
The binding assays utilized allow the determination of the concentration of the individual compound required to reduce by 50% the [^125I]-NKA and [^3H]-NKA specific binding to NK2 receptor in equilibrium conditions (IC50).
Binding assays provide for each compound tested a mean IC50 value of 2-5 separate experiments performed in duplicate or triplicate. […] The NK-2-antagonist activity of the compounds of the present invention is determined by their ability to inhibit human NK-2 receptor-mediated Ca^++ mobilization (Mochizuki et al, 1994, J. Biol. Chem., 269, 9651-9658). Human receptor functional assay allows the determination of the concentration of the individual compound required to reduce by 50% (IC50 values) the Ca^++ mobilization induced by the agonist NKA. In this assay, the compounds of the present invention behave as antagonists.

`CC[C@H](NC(=O)c1c(CCCCN2CCN(c3ccccc3)CC2)c(-c2ccccc2)nc2ccccc12)c1ccccc1` [Example 14] yielded a melting point of 151 to 153 °C. Further, the Ki in data set [1] was found to be 1.1 nM. In data set [2], the Ki was 22.2 nM.
In the same order, the values of `CC[C@H](NC(=O)c1c(CN2CCC(=O)C2)c(-c2ccccc2)nc2ccccc12)c1ccccc1` [Example 34, (S)-N-(α-ethylbenzyl)-3-[(3-oxo)pyrrolidin-1-ylmethyl]-2-phenylquinoline-4-carboxamide] are 142 to 145 °C, 1.5 nM and 38 nM.
In the case of `CC[C@H](NC(=O)c1c(CN2CCCCC2)c(-c2ccccc2)nc2ccccc12)c1ccccc1` (as salt: HCl) [Example 8], the melting point is 140 °C (dec.).
`CC[C@H](NC(=O)c1c(CCN2CCN(c3ccc(C)cc3)CC2)c(-c2ccccc2)nc2ccccc12)c1ccccc1` [Example 29] had a melting point of 93 to 96 °C. Further, the Ki in data set [1] was 2.5 nM. In data set [2], the Ki is 35.3 nM.
In the same order, the values of `CC[C@H](NC(=O)c1c(CN2CC[C@@H](O)C2)c(-c2ccccc2)nc2ccccc12)c1ccccc1` [Example 33] are 100 to 105 °C, 2.9 nM and 64.8 nM.
In the same order, the values of `CC[C@H](NC(=O)c1c(CCCN2CCC(c3ccccc3)CC2)c(-c2ccccc2)nc2ccccc12)c1ccccc1` [Example 25] are 75 to 80 °C, 0.5 nM and 1.5 nM.
For the molecule `CC[C@H](NC(=O)c1c(CCN2CCN(C(C)C)CC2)c(-c2ccccc2)nc2ccccc12)c1ccccc1` [Example 39], the Ki in data set [1] stood at 0.8 nM; in data set [2], 35.6 nM.
Regarding `CC[C@H](NC(=O)c1c(CCCN2CCN(c3ccccc3)CC2)c(-c2ccccc2)nc2ccccc12)c1ccccc1` [Example 13], the values for the Ki in data set [1] and in data set [2] were 0.3 nM and 3.8 nM, respectively.
Turning to `CC[C@H](NC(=O)c1c(CN2CCCCC2)c(-c2ccccc2)nc2ccccc12)c1ccccc1` [Example 8], the Ki in data set [1] stood at 0.9 nM; in data set [2], 24.1 nM.
Consider `CC[C@H](NC(=O)c1c(CCN2CCN(c3cccc(C(F)(F)F)c3)CC2)c(-c2ccccc2)nc2ccccc12)c1ccccc1` [Example 22], for which the melting point was in the range of 115 to 117 °C. Further, in data set [1], the Ki was 2.9 nM. The Ki in data set [2] worked out at 44.9 nM.
In the same order, the values of `CC[C@H](NC(=O)c1c(CN2CCC3(CCCC3)CC2)c(-c2ccccc2)nc2ccccc12)c1ccccc1` [Example 31] are 156 to 160 °C, 3.9 nM and 143 nM.
Take `CC[C@H](NC(=O)c1c(CN2CCN(C(C)C)CC2)c(-c2ccccc2)nc2ccccc12)c1ccccc1` [Example 20]: the Ki amounted to 1.8 nM in data set [1] and 5.7 nM in data set [2].
`CC[C@H](NC(=O)c1c(CN2CCN(Cc3ccccc3)CC2)c(-c2ccccc2)nc2ccccc12)c1ccccc1` [Example 26, (S)-N-(α-ethylbenzyl)-3-[(4-benzylpiperazin-1-yl)methyl]-2-phenylquinoline-4-carboxamide]: the melting point was 85 °C (dec.). The Ki in data set [1] was 0.4 nM. For the same molecule, in data set [2], the Ki worked out at 1.7 nM.
Regarding `CC[C@H](NC(=O)c1c(CCN2CCN(c3ccccc3)CC2)c(-c2ccccc2)nc2ccccc12)c1ccccc1` [Example 12], the figures for the Ki in data set [1] and in data set [2] were 1.9 nM and 39 nM, respectively.
`CC[C@H](NC(=O)c1c(CCCN2C(=O)c3ccccc3C2=O)c(-c2ccccc2)nc2ccccc12)c1ccccc1` [Example 21] had a melting point of 182 to 183 °C. The Ki in data set [1] amounted to 0.9 nM. For the same molecule, the Ki in data set [2] turned out to be 6.4 nM.
In the same order, the values of `CC[C@H](NC(=O)c1c(CCCN2CCN(c3ccc(Cl)cc3)CC2)c(-c2ccccc2)nc2ccccc12)c1ccccc1` [Example 24] are 100 to 105 °C, 0.9 nM and 3.3 nM.
Consider `CC[C@H](NC(=O)c1c(CN2CCC(O)CC2)c(-c2ccccc2)nc2ccccc12)c1ccccc1` [Example 18, (S)-N-(α-Ethylbenzyl)-3-[(4-hydroxypiperidin-1-yl)methyl]-2-phenylquinoline-4-carboxamide], for which the melting point lay in the range of 203 to 207 °C. Also, the Ki in data set [1] worked out at 2.3 nM. Also, the Ki in data set [2] is 44.6 nM.
Consider `CC[C@H](NC(=O)c1c(CCN2CCN(c3ccccc3)CC2)c(-c2ccccc2)nc2ccccc12)c1ccccc1` (as salt: HCl) [Example 12], for which the melting point was 206 °C (dec.).
As for `CC[C@H](NC(=O)c1c(CCN2CCN(c3ccc(F)cc3)CC2)c(-c2ccccc2)nc2ccccc12)c1ccccc1` [Example 30], the melting point was in the range of 96 to 98 °C. The Ki in data set [1] is 3 nM. In addition, the inhibition constant Ki in data set [2] worked out at 27.1 nM.
`CC[C@H](NC(=O)c1c(CN2CCN(C)CC2)c(-c2ccccc2)nc2ccccc12)c1ccccc1` (as salt: HCl) [Example 11] came in with a melting point of 195 to 198 °C.
Consider `CC[C@H](NC(=O)c1c(CCN2CCN(c3ccc(Cl)cc3)CC2)c(-c2ccccc2)nc2ccccc12)c1ccccc1` [Example 27], for which the melting point was 100 to 110 °C (dec.). Further, the Ki in data set [1] was found to be 2.8 nM. In addition, in data set [2], the Ki came to 53.5 nM.
Consider `CC[C@H](NC(=O)c1c(CCCN2CCN(c3ccccc3)CC2)c(-c2ccccc2)nc2ccccc12)c1ccccc1` (as salt: HCl) [Example 13], for which the melting point was 180 °C (dec.).
For the molecule `CC(C)[C@H](NC(=O)c1c(CN(C)C)c(-c2ccccc2)nc2ccccc12)c1ccccc1` [Example 41], the melting point fell in the range of 117 to 120 °C. In addition, the Ki in data set [1] is 3.3 nM. The Ki in data set [2] was determined as 56.7 nM.
As to `CC[C@H](NC(=O)c1c(CN2CCNCC2)c(-c2ccccc2)nc2ccccc12)c1ccccc1` [Example 28, (S)-N-(α-Ethylbenzyl)-3-[(piperazin-1-yl)methyl]-2-phenylquinoline-4-carboxamide], the melting point was 94 to 98 °C and 94.5 to 98 °C.
On the same count and under the same terms, with `CC[C@H](NC(=O)c1c(CN2CCN(C(C)C)CC2)c(-c2ccccc2)nc2ccccc12)c1ccccc1` (as salt: HCl) [Example 20] the figure was 178 to 182 °C.
`CC[C@H](NC(=O)c1c(CN2CCN(C)CC2)c(-c2ccccc2)nc2ccccc12)c1ccccc1` [Example 11]: the Ki in data set [1] turned out to be 4 nM; in data set [2], 66.8 nM.
